Results: US20210353557A1, “ORAL COMPOSITION CONTAINING REDUCED COENZYME Q10, METHOD FOR PRODUCING SAME, METHOD FOR PREVENTING DISCOLORATION AND DISCOLORATION PREVENTING AGENT” (SUNTORY HOLDINGS LIMITED, priority 2018, published 2021)

Assay: Color difference (ΔE) after storage under accelerated condition, Reference Example 1
Assay type: physicochemical
Details: 40° C., 75% RH; for ΔE After 7 days: 7-day (168-hour) storage; for ΔE After 7 days / ΔE 0-Hour storage: n=1; for change in ΔE value after storage (in words): 7 days; for ΔE 0-Hour storage: start of storage
Procedure: The L value, a value, and b value of a sample were measured using a color difference meter (trade name: Spectrophotometer SE7700, available from Nippon Denshoku Industries Co., Ltd.). • The number n of samples was 3 for each standard unless otherwise mentioned. The average values of the three samples were defined as the L value, a value, and b value of the standard. • Measurement was performed five times for each sample, and the average value was output as the result. The sample was stirred for each measurement operation so that the whole sample was subjected to the measurement. • In the measurement, about 1 g of a sample was weighed out from a Petri dish for use. The sample in the Petri dish was mixed and homogenized before weighing out.
The ΔE value was calculated by the following formula.
ΔE={(ΔL)^2+(Δa)^2+(Δb)^2}^1/2
For each standard after storage for a predetermined period of time, the ΔE value was calculated based on the 0-time value (value after 0-hour storage) of the standard. For a control after storage for a predetermined period of time, the ΔE value was also calculated based on the 0-time value (value after 0-hour storage) of the control.
About 2 g each of the reduced CoQ10, sesamin compound, theanine, and dextrin were put into separate Petri dishes (n=1) and left to stand at a temperature of 40° C. and a humidity of 75% RH (accelerated condition). The L value, a value, and b value were measured at the start of storage (0-hour storage) and after 7-day (168-hour) storage, and then the ΔE value was calculated. For each sample, the change in appearance after seven days from the start of storage was visually observed.

Row | SMILES | ΔE After 7 days | change in ΔE value after storage (in words) | appearance by visual observation after seven days | ΔE 0-Hour storage
1 | CCNC(=O)CC[C@H](N)C(=O)O [Standard S-3, Theanine] | 0.1 | little change in ΔE value after storage | white to pale yellow | 0.0
2 | COc1c(O)c(C)c(C/C=C(\C)CC/C=C(\C)CC/C=C(\C)CC/C=C(\C)CC/C=C(\C)CC/C=C(\C)CC/C=C(\C)CC/C=C(\C)CC/C=C(\C)CCC=C(C)C)c(O)c1OC [Standard S-1, Reduced CoQ10] | 66.4 | increase in ΔE value over time | orange | 0.0
